Legend:
[1] = target: human phosphoinositide-3 kinase (PI3K) alpha (Homo sapiens (Human), UniProt P42336); test: PI3K-mediated Akt 1/2 (S473) phosphorylation in Rat-1 cells overexpressing PI3K alpha; format: cell-based, rat cells expressing human PI3K alpha; details: cellular assay, p-AKT(Ser473), read-out: Cell PI3K alpha IC50
Description: (§1) 2.1 Phosphoinositide-3 kinase (PI3K)-Mediated Akt 1/2 (S473) Phosphorylation in Rat-1 Cells
(§2) Rat-1 cells stably overexpressing a myristoylated form of the catalytic subunit of human phosphoinositide-3 kinase (PI3K) alpha, beta or delta were plated in 384-well plates at a density of 7500 (PI3K alpha), 6200 (PI3K beta), or 4000 (PI3K delta) cells in 30 ul complete growth medium (Dulbecco's modified Eagle's medium (DMEM high glucose) supplemented with 10% (v/v) fetal bovine serum, 1% (v/v) MEM non essential amino acids, 10 mM HEPES, 2 mM L-glutamine, 10 μg/mL puromycin and 1% (v/v) Penicillin/Streptomycin) and were incubated at […]/5% CO2/95% humidity for 24 h. Compounds were diluted in 384-well compound plates (compound master plates), to obtain 8-point serial dilutions for 40 test compounds in 90% DMSO, as well as 4 reference compounds plus 16 high controls and 16 low (inhibited) controls. Predilution plates were prepared by dispensing pipetting 250 nl of compound solutions into 384-well polypropylen plates (daugther plates), using a Hummingwell nanoliter dispenser. Compounds were prediluted by the addition of 49.75 ul complete growth medium. 10 ul of prediluted compound solution were transferred to the cell plate using a 384-well pipettor, resulting in a final DMSO concentration of 0.11%. Cells were incubated for 1 h at […]/5% CO2/95% humidity. The supernatant was removed, the cells were lysed in 20 ul of lysis buffer for AlphaScreen® SureFire® detection.
(§3) For detection of p-AKT(Ser473), the SureFire® p-Akt 1/2 (Ser473) Assay Kit (PerkinElmer, U.S.A.) was used. 5 ul of cell lysate was transferred to 384-well low volume Proxiplates for detection using a 384-well pipettor. Addition of AlphaScreen® SureFire® reagents was done according to the manufacturer's protocol. First, 5 ul of reaction buffer plus activation buffer mix containing AlphaScreen® acceptor beads was added, the plate was sealed, and incubated on a plate shaker for 2 hours at room temperature. Second, 2 ul of dilution buffer containing AlphaScreen® donor beads was added, and the plate was incubated on plate shaker as above for a further 2 hours. The plate was read on an AlphaScreen® compatible plate reader, using standard AlphaScreen® settings. Alternatively, p-AKT(Ser473) was detected with the CisBio HTRF Assay Kit: As positive control, 0.9 mM of 1-(3-(trifluoromethyl)-4-(piperazin-1-yl)phenyl)-8-(6-methoxypyridin-3-yl)-3-methyl-1H-imidazo[4,5-c]quinolin-2(3H)-one maleic acid salt in 90% (v/v) DMSO was added to the compound master plate. For compound testing, the cells were seeded at a density of 4000 (Rat-1_PI3Kdelta), 8000 (Rat-1_PI3Kalpha), or 6500 (Rat-1_PI3Kbeta) cells in 30 ul complete growth medium into 384-well plates, with a plastic surface promoting the adhesion of cells and their growth (assay plates) and were grown at 37° C./5% CO2/90% humidity for 24 h. Some 10 ul of the compound predilutions from the daughter plate were then transferred to the cells. After treatment with compound for 1 h, medium was removed and cells were lysed by the addition of 20 ul lysis buffer supplemented with blocking buffer. Detection of p-AKT(Ser473) was performed with the HTRF pAKT (Ser473) assay kit according to the manufacturer's instructions using 16 ul of cell lysate in a total detection volume of 20 ul.

PI 3-Kinase Gamma = PI 3-Kinase Gamma (Homo sapiens (Human), UniProt P48736); test: Cellular U937 AKT assay for PI 3-kinase gamma; format: cell-based; details: U937 cells, MIP1α-stimulated AKT phosphorylation, read-out: Cell PI3K gamma IC50
PI 3-Kinase Gamma, sequence (P48736 whole entry): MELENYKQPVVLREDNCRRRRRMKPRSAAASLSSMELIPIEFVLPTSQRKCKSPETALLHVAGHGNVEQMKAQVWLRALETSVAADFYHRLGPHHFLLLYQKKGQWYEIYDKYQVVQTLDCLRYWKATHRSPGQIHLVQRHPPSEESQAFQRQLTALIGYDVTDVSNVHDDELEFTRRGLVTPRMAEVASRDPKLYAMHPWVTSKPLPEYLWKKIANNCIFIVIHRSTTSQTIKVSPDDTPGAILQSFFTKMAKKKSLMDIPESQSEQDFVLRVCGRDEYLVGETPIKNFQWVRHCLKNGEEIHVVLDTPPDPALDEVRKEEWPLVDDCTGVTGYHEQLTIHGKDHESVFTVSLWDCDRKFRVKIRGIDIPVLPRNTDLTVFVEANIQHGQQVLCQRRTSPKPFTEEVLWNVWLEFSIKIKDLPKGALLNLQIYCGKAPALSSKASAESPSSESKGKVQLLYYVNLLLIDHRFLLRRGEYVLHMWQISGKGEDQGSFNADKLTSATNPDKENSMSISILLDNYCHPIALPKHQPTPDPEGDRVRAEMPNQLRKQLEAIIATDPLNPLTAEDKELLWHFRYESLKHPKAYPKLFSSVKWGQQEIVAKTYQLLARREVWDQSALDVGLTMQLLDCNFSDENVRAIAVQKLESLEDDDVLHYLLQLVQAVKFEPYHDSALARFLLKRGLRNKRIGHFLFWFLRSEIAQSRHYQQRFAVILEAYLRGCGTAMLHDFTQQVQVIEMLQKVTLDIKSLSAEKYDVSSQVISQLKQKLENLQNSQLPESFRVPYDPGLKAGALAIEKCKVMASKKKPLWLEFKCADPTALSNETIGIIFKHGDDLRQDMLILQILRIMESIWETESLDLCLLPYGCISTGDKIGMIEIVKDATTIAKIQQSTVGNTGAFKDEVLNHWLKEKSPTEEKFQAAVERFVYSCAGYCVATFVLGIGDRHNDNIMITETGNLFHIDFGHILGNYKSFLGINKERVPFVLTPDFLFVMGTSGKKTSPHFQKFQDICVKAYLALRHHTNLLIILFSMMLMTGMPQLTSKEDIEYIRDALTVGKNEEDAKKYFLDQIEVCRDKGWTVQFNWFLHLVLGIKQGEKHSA
Description: The U937 monocyte cell line is maintained in a basal medium of RPMI 1640 supplemented with 10% heat inactivated FCS, 100 U/ml Penicillin, 100 ug/ml streptomycin and 2 mM L-glutamine (Invitrogen). U937 suspension culture is maintained by seeding cells at a density of 0.125×10^6 cells per ml in fresh medium every three or four days. Cells are incubated at 37° C., 5% CO2. […] Before beginning the cell manipulations described below, the MSD (Meso Scale Discovery) assay plate is blocked by addition of 150 ul/well blocking buffer supplied and incubated with shaking for a minimum of one hour at room temperature. All steps of the assay must be performed quickly, with accurately timed incubation periods and observing temperature controls where indicated. […] Falcon tube, counted and centrifuged for eight minutes at 300 g at room temperature. Supernatant is aspirated, the cell pellet resuspended and washed once in HBSS (Hank's Balanced Salt Solution) by centrifugation for eight minutes at 300 g at room temperature. The cell pellet is resuspended in HBSS to a concentration of 4×10^6 per ml, and 100 μL of cell suspension added to each well of a flat-bottomed 96-well tissue culture plate. Assay plates are incubated for 1.5 hours at 37° C., 5% CO2 to allow background AKT phosphorylation to reduce before the compound stimulation step. […] Compound concentrations at this stage are 4-times the final concentration required in the assay plate. Cells are stimulated with compound or HBSS 0.8% DMSO by direct transfer of 50 ul/well from the compound dilution plate. The assay plate containing compound-treated cells is then incubated for 30 minutes at 37° C. A standard plate layout is used for all experiments. Compound-treated cells, in addition to positive control wells (“max MIP1α”), are stimulated with 50 μL per well of 40 ng/ml MIP1α (R&D Systems catalogue number 270-LD, lyophilized stock reconstituted to 50 μg/ml with PBS 0.1% BSA). Negative control wells (“min HBSS”), are stimulated with 50 μl/well of HBSS in the absence of MIP1α. […] Cells are incubated with MIP1α for 3 minutes, at 37° C., 5% CO2. After the three minute stimulation period, the assay plate is kept ice cold at all times. Assay plates are centrifuged for 2 minutes at 300 g, 4° C. and supernatant is removed by gently inverting, and then blotting the plate on tissue. Cells are then washed by gentle addition of 150 μL/well of ice cold HBSS and centrifugation at 300 g, for 5 minutes at 4° C. Supernatant is aspirated and the plate blotted as described above. The plate is placed on ice and cells are immediately treated with 35 μL per well of ice cold lysis buffer, prepared according to the kit instructions (per assay plate, to 5 ml of Tris lysis buffer add 100 μl of 50× protease inhibitor solution and 50 μl of each 100× phosphatase inhibitor solutions I and II). Plates are incubated on ice for 20 minutes before centrifugation at 841 g for 5 minutes, 4° C. Block buffer is aspirated from the MSD plate, and the plate washed four times with 300 μl/well Tris wash buffer. 25 μL of cell lysate is then transferred from the assay plate to the washed MSD plate which is sealed and incubated at room temperature for one hour with shaking. The plate is washed four times with 300 μL per well of Tris wash buffer before addition of 25 μL per well of sulfo-tag anti-total AKT/pAKT detection antibody (60 μl of 50× antibody stock is diluted in 1 ml block buffer mixed with 2 ml wash buffer) and incubated at room temperature for one hour with shaking. The plate is washed four times with 300 μl per well of Tris wash buffer and 150 μl per well of Read buffer is added, taking care to avoid the introduction of bubbles. The plate is immediately read using an MSD SECTOR Imager 6000. Results are exported in Excel and the percentage of phosphorylated AKT is calculated using the equation: % Phosphoprotein=((2*Phospho signal)/(Phospho signal+Total signal))*100. […]

[2] = target: human phosphoinositide-3 kinase (PI3K) delta (Homo sapiens (Human), UniProt O00329); test: PI3K-mediated Akt 1/2 (S473) phosphorylation in Rat-1 cells overexpressing PI3K delta; format: cell-based; details: cellular assay, p-AKT(Ser473), read-out: Cell PI3K delta IC50
human phosphoinositide-3 kinase (PI3K) delta, sequence (O00329 whole entry): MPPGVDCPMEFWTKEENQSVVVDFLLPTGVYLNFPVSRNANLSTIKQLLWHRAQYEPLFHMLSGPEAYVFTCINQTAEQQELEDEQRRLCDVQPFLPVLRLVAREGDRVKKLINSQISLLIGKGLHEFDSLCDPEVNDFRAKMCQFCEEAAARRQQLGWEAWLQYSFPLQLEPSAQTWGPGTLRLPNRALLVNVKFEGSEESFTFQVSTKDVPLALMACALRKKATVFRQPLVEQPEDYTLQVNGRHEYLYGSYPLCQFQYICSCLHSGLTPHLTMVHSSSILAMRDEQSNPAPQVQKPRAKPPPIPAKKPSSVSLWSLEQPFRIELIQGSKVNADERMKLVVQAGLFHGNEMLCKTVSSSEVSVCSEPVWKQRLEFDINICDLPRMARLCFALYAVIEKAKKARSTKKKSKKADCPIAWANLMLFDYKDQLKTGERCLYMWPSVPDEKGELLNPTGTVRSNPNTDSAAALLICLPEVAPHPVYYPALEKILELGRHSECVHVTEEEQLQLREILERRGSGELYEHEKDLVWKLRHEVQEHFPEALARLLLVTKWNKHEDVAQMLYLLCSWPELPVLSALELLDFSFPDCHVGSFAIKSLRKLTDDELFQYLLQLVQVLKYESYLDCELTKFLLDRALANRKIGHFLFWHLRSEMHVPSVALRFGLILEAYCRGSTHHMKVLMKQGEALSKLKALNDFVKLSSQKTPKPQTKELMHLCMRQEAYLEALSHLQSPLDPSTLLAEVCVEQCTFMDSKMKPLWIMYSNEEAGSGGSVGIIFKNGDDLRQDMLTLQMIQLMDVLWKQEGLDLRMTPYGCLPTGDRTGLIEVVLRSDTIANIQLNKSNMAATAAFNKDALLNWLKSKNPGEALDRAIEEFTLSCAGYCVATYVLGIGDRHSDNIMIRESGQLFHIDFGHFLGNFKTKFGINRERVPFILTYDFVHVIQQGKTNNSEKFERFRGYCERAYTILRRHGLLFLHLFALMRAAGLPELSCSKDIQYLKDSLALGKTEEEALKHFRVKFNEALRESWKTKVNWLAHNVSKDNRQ
human phosphoinositide-3 kinase (PI3K) delta, sequence (Q63787 whole entry partner): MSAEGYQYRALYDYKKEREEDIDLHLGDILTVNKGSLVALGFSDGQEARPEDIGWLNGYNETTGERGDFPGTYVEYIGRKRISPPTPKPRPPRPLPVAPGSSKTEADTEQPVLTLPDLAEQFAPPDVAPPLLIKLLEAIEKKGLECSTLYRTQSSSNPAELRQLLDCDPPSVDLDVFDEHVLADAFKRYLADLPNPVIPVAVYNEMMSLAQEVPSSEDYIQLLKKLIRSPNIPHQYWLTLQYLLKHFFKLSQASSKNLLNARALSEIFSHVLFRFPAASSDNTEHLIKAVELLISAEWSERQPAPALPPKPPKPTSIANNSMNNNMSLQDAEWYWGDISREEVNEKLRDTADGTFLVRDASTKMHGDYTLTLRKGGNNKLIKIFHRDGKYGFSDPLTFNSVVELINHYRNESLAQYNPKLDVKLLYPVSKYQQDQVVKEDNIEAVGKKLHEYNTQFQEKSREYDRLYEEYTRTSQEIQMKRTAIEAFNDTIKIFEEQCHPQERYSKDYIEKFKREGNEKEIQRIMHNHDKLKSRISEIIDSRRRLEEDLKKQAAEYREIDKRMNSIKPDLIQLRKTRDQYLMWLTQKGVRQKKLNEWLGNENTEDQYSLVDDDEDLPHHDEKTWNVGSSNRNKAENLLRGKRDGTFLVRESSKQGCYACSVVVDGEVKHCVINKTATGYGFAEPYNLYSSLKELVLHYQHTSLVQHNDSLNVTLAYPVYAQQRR
Description: as §1, §2, §3

human phosphoinositide-3 kinase (PI3K) alpha, sequence (P42336 whole entry): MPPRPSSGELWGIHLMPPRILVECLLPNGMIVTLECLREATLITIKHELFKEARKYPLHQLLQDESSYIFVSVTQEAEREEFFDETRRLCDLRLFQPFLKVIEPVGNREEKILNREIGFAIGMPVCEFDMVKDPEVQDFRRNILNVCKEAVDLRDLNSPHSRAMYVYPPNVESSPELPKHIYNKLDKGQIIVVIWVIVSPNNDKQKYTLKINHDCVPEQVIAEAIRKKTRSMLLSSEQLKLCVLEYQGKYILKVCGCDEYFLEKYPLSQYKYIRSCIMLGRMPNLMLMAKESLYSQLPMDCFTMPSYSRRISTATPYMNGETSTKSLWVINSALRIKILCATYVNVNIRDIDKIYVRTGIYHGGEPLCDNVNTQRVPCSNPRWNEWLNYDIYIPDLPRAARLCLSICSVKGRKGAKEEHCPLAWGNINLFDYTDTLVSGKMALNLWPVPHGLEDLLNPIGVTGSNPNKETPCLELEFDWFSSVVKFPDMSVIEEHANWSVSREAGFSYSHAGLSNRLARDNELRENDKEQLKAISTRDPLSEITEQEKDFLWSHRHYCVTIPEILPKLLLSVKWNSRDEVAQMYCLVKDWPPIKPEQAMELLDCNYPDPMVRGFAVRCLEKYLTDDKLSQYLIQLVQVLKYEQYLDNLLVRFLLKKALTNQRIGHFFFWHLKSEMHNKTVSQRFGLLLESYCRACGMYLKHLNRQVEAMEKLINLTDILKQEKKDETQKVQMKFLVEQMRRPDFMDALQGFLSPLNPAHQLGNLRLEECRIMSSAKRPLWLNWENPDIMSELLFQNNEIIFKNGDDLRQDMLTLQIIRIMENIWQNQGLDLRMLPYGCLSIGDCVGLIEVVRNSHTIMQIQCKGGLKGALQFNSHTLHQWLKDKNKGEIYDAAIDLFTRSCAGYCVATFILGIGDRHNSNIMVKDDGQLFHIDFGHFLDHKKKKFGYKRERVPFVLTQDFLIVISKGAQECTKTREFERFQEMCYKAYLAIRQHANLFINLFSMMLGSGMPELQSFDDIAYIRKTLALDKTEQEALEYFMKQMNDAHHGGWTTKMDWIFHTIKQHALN
human phosphoinositide-3 kinase (PI3K) alpha, sequence (Q63787 whole entry partner): as the sequence (Q63787 whole entry partner) above

- IC50 [1]: > 10000 nM
- IC50 (PI 3-Kinase Gamma): 11 nM
- IC50 [2]: 13 nM
SMILES: Cc1ncc(-c2cccc3nc([C@@H]4C[C@H](O)CN4c4nc(N)nc(C)c4C#N)n(-c4ccccc4)c(=O)c23)cn1 [Example 23, 2-Amino-4-((2S,4S)-4-hydroxy-2-(5-(2-methylpyrimidin-5-yl)-4-oxo-3-phenyl-3,4-dihydroquinazolin-2-yl)pyrrolidin-1-yl)-6-methylpyrimidine-5-carbonitrile]

Reference: US9840498B2, “Substituted quinazolin-4-one derivatives” (NOVARTIS AG, priority 2013, dated 2017)
